From ChEMBL document CHEMBL3259558, “Identification of amides derived from 1H-pyrazolo[3,4-b]pyridine-5-carboxylic acid as potent inhibitors of human nicotinamide phosphoribosyltransferase (NAMPT)” (Bioorg Med Chem Lett, 2013)
Calls of active or inactive are those of the source. The calls are words filed in the database; no cut-off is given here.

Columns and labels:
[1] = target: Nicotinamide phosphoribosyltransferase (Homo sapiens, UniProt P43490); assay: Inhibition of C-terminal His-6-tagged full length human NAMPT expressed in Escherichia coli (DE3) cells after 30 mins by mass spectrometry-based analysis
Nicotinamide phosphoribosyltransferase, sequence (P43490 whole entry): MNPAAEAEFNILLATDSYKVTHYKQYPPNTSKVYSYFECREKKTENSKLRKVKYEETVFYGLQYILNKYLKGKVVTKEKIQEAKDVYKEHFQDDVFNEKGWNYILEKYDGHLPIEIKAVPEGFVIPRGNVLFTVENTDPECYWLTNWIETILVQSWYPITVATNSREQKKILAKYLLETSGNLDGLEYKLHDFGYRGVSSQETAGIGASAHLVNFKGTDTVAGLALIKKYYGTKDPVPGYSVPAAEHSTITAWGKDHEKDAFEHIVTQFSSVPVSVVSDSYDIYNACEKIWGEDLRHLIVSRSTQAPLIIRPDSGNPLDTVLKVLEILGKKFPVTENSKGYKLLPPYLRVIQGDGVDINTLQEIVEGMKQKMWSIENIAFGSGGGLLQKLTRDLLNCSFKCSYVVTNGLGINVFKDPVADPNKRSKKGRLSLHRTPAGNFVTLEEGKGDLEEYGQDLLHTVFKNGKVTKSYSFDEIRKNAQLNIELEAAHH

[2] = test system: A2780; assay: Antiproliferative activity against human A2780 cells assessed as cell viability after 72 hrs by SRB assay; type: functional, cell-based; conditions: A2780, 72 h
[3] = test system: A2780; assay: Antiproliferative activity against human A2780 cells assessed as cell viability after 72 hrs by SRB assay in presence of nitotinamide mononucleotide; type: functional, cell-based
[4] = Apparent permeability from apical to basolateral side in MDCK cells at 10 uM by LC-MS/MS analysis; type: ADME, cell-based, Canis lupus familiaris; conditions: dog
[5] = Fraction unbound in mouse plasma at 5 uM by LC-MS/MS analysis; type: ADME, cell-free
[6] = Aqueous solubility of the compound in PBS at pH 7.2 by LC/CLND analysis; type: physicochemical

| SMILES | IC50 [1] | IC50 [2] | inhibition [3] | Papp A→B at 10 µM [4] | fraction unbound at 5 µM [5] | solubility [6] |
| --- | --- | --- | --- | --- | --- | --- |
| COC1CCN(S(=O)(=O)c2ccc(CNC(=O)c3cnc4[nH]ncc4c3)cc2)CC1 | 400 nM | 39 nM | inactive |  |  |  |
| Cn1ncc2cc(C(=O)NCc3ccc(S(=O)(=O)c4ccccc4)cc3)cnc21 | 1700 nM | > 2000 nM | inactive |  |  |  |
| CN(C)c1ccc(S(=O)(=O)c2ccc(CNC(=O)c3cnc4[nH]ncc4c3)cc2)cn1 | 12 nM | 3.2 nM | inactive | 1.5 ×10⁻⁶ cm/s | 0.018 | < 1 µM |
| O=C(NCc1ccc(S(=O)(=O)c2cncc(C(F)(F)F)c2)cc1)c1cnc2[nH]ncc2c1 | 10 nM | 4.5 nM | inactive | 4.4 ×10⁻⁶ cm/s | 0.05 | < 1 µM |
| O=C(NCc1ccc(S(=O)(=O)c2cc(F)cc(F)c2)cc1)c1cnc2[nH]ncc2c1 |  | 6 nM | inactive | 7.8 ×10⁻⁶ cm/s | 0.114 | < 1 µM |
| CCn1cc(S(=O)(=O)c2ccc(CNC(=O)c3cnc4[nH]ncc4c3)cc2)cn1 | 190 nM | 31 nM | inactive |  |  |  |
| O=C(NCc1ccc(S(=O)(=O)N2CCOCC2)cc1)c1cnc2[nH]ncc2c1 | 370 nM | 280 nM | inactive |  |  |  |
| O=C(NCc1ccc(S(=O)(=O)c2ccccc2)cc1)c1cc2cn[nH]c2cn1 | > 2000 nM | > 2000 nM | inactive |  |  |  |
| O=C(NCc1ccc(S(=O)(=O)N2CCCCC2)cc1)c1ccc2nccn2c1 |  |  | inactive |  |  |  |
| O=C(NCc1ccc(S(=O)(=O)c2cccc(OC(F)(F)F)c2)cc1)c1cnc2[nH]ncc2c1 | 7.7 nM | 4.8 nM | inactive | 4 ×10⁻⁶ cm/s | 0.008 | < 1 µM |
| O=C(NCc1ccc(S(=O)(=O)c2ccccc2)cc1)c1ccc2[nH]ncc2n1 | 1300 nM | > 2000 nM | inactive |  |  |  |
| O=C(NCc1ccc(S(=O)(=O)N2CC3(CCOCC3)C2)cc1)c1cnc2[nH]ncc2c1 | 110 nM | 45 nM | inactive |  |  |  |
| O=C(NCc1ccc(S(=O)(=O)N2CCCCC2)cc1)c1cnc2[nH]ncc2c1 | 100 nM | 88 nM | inactive |  |  |  |
| O=C(NCc1ccc(S(=O)(=O)N2CCN(C3COC3)CC2)cc1)c1cnc2[nH]ncc2c1 | 440 nM | 45 nM | inactive |  |  |  |
| O=C(NCc1ccc(S(=O)(=O)N2CCC(N3CCCC3)CC2)cc1)c1cnc2[nH]ncc2c1 |  | 35 nM | inactive |  |  |  |
| O=C(NCc1ccc(S(=O)(=O)N2CCC(O)CC2)cc1)c1cnc2[nH]ncc2c1 | 410 nM | 210 nM | inactive |  |  |  |
| N#CC1CCN(S(=O)(=O)c2ccc(CNC(=O)c3cnc4[nH]ncc4c3)cc2)CC1 | 410 nM | > 2000 nM | inactive |  |  |  |
| CC(C)n1cc(S(=O)(=O)c2ccc(CNC(=O)c3cnc4[nH]ncc4c3)cc2)cn1 | 99 nM | 12 nM | inactive |  |  |  |
| O=C(NCc1ccc(S(=O)(=O)c2ccccc2)cc1)c1ccc2nccn2c1 |  |  | inactive |  |  |  |
| O=C(NCc1ccc(S(=O)(=O)N2CCCCC2)cc1)c1ccc2[nH]ncc2c1 | > 2000 nM | > 2000 nM | inactive |  |  |  |
| O=C(NCc1ccc(S(=O)(=O)c2ccccc2)cc1)c1cnc2[nH]ncc2c1 | 54 nM | 66 nM | inactive |  |  |  |
| O=C(NCc1ccc(S(=O)(=O)c2ccccc2)cc1)c1cnc2[nH]ccc2c1 |  | > 2000 nM | inactive |  |  |  |
| NC1CCN(S(=O)(=O)c2ccc(CNC(=O)c3cnc4[nH]ncc4c3)cc2)CC1 | 390 nM | 330 nM | inactive |  |  |  |
